{"source": "patent US20130137644A1", "about": "“CELL PENETRATING PEPTIDE CONJUGATES FOR DELIVERING OF NUCLEIC ACIDS INTO A CELL” (priority 2005, published 2013)", "test": "Body weight evolution, apparent toxicity during the efficacy experiment", "assay_type": "in vivo, NMRI nude mice", "settings": "48.15 μmol/kg i.v. Q1D5; course of experiment 80 days", "procedure": "Animal experiments were performed according to ethical guidelines of animal experimentation. The day of the first injection (6 days after the graft), mice were randomized in 7 groups. Mice were treated by intravenous injection in the lateral tail vein at a constant volume of 10 microL/g. Groups were as follows:\nDuring the course of experiment body weight and tumor size were controlled every 2 or 3 days (except weekends). […] Mortality of animals was recorded every day except the weekend.\nDuring the efficacy experiment, body weight was monitored twice weekly. Treatment toxicity was assessed based on clinical signs and body weight evolution.", "data": [{"compound": "CCc1c2c(nc3ccc(OC(=O)N4CCC(N5CCCCC5)CC4)cc13)-c1cc3c(c(=O)n1C2)COC(=O)[C@]3(O)CC", "note": "[irinotecan, Irinotecan]", "values": [{"measurement": "body weight loss", "result": "~20", "unit": "%"}]}]}
